54 molecules from patent publication US20250195483A1, “SPIRO PIPERIDINE DERIVATIVES AS INHIBITORS OF APOL1 AND METHODS OF USING SAME” (Vertex Pharmaceuticals Incorporated, priority 2022, published 2025) can be followed below.

The assay concerns the target T1, APOL1 (Homo sapiens, UniProt O14791).
T1 sequence (O14791 1-398): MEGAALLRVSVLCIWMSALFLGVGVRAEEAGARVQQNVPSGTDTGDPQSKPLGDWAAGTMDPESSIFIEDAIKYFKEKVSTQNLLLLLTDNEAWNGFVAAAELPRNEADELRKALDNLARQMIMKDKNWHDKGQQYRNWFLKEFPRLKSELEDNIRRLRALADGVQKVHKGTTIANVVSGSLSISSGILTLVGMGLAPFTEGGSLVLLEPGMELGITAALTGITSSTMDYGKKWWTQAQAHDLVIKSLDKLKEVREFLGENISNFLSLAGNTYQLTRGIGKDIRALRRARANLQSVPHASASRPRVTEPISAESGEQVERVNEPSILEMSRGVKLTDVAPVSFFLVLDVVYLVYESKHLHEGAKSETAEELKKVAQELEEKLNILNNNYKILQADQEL
In words: MultiTox-Fluor Multiplex Cytotoxicity Assay, tet-inducible APOL1 T-REx-HEK293 cells (G0, G1 or G2 clone not specified for Table 20). In kind it is cell-based. The note with it: tet-induced, 24 hours with compound, ratio of dead to live cells, read-out: IP50 (i.e., IC50 for cell proliferation). The essentials: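 HEK293 T-REx cells with tet-inducible APOL1 G0, G1 or G2 clone, 23,400/well, treated with tetracycline plus compound (top 10 μM, 10-point 3-fold, duplicate) for 24 h at 37° C. MultiTox-Fluor dead/live fluorescence ratio, normalized to no-tet (100% viability) and 50 ng/mL tet (0% viability) controls, then curve-fitted.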

Where only a bound is given, the exact number is not on record here.

`Cc1nc(CN2CCC3(CC2)OC(C(N)=O)c2ccc(Cl)cc23)co1` (stereo not drawn) [Compound 221]: the IC50 is at least 0.5 µM.
The result for `Cc1cc(CN2CC[C@]3(C[C@@H]2C)OCCc2ccc(Cl)cc23)[nH]n1` [Compound 109] reads at most 0.05 µM; that for `CN1C(=O)C2(CCN(Cc3cn[nH]c3)CC2)c2cc(Cl)ccc21` [Compound 38], 0.05 to 0.5 µM.
Under `CNc1ncc(CN2CCC3(CC2)OC(C(N)=O)c2ccc(Cl)cc23)cn1` (stereo not drawn) [Compound 244] stands at most 0.05 µM; under `C[C@H]1C[C@@]2(CCN1Cc1cn(CC3(O)CCOC3)nn1)OCCc1ccc(Cl)cc12` (stereo partly drawn) [Compound 149], at most 0.05 µM.
The result for `C[C@H]1C[C@@]2(CCN1Cc1cnn(CCS(C)(=O)=O)c1)OCCc1ccc(Cl)cc12` [Compound 88, (1R,2′S)-7-chloro-2′-methyl-1′-[[1-(2-methylsulfonylethyl)pyrazol-4-yl]methyl]spiro[isochromane-1,4′-piperidine]] reads at most 0.05 µM.
Regarding `COCCn1cc(CN2CCC3(CC2)C(=O)Nc2ccc(C)cc23)cn1` [Compound 27], the IC50 was at least 0.5 µM.
The result for `CC(C)Oc1ccc(CN2CCC3(CC2)C(=O)Nc2ccc(Cl)cc23)cc1` [Compound 7] reads 0.05 to 0.5 µM; that for `C[C@H]1C[C@@]2(CCN1Cc1cn(Cc3cc(=O)[nH]c(C4CC4)n3)nn1)OCCc1ccc(Cl)cc12` [Compound 163], 0.05 to 0.5 µM.
The result for `C[C@H]1C[C@@]2(CCN1Cc1cncnc1)OCCc1ccc(Cl)cc12` [Compound 119] reads at most 0.05 µM.
The result for `CNC(=O)C1OC2(CCN(Cc3cnn(C4CCOCC4)c3)CC2)c2cc(Cl)ccc21` (stereo not drawn) [Compound 200] reads 0.05 to 0.5 µM; that for `NC(=O)C1OC2(CCN(Cc3cnc4c(c3)COCC4)CC2)c2cc(Cl)ccc21` (stereo not drawn) [Compound 238], at least 0.5 µM.
Consider `CN1C(=O)C2(CCN(Cc3cnc(NC(C)(C)CO)nc3)CC2)c2cc(Cl)ccc21` [Compound 40], for which the IC50 lay within 0.05 to 0.5 µM.
On to `CN1C(=O)C2(CCN(Cc3cnn(CCS(C)(=O)=O)c3)CC2)c2cc(OC(F)F)ccc21` [Compound 85], for which the IC50 was at least 0.5 µM.
`C[C@H]1C[C@@]2(CCN1Cc1cnn(CCS(C)(=O)=O)c1)OCC(F)(F)c1ccc(Cl)cc12` [Compound 135]: the IC50 is at most 0.05 µM.
Under `NC(=O)C1OC2(CCN(Cc3cc4n(n3)CCOC4)CC2)c2cc(Cl)ccc21` (stereo not drawn) [Compound 249] stands at least 0.5 µM; under `Cc1ccc2c(c1)[C@]1(CCN(Cc3cnn(CC(C)(CO)CO)c3)[C@@H](C)C1)OCC2` [Compound 100], at most 0.05 µM.
For `NC(=O)C1OC2(CCN(Cc3cnn(C4CCOCC4)c3)CC2)c2cc(Cl)ccc21` (stereo not drawn) [Compound 235], the IC50 was at most 0.05 µM.
As to `NC(=O)C1OC2(CCN(Cc3cnn(CC(O)C4(O)CCC4)c3)CC2)c2cc(Cl)ccc21` (stereo not drawn) [Compound 280, 5-chloro-1′-[[1-[2-hydroxy-2-(1-hydroxycyclobutyl)ethyl]pyrazol-4-yl]methyl]spiro[1H-isobenzofuran-3,4′-piperidine]-1-carboxamide], the IC50 is at most 0.05 µM.
Under `CN1C(=O)Cc2ccc(CN3CCC4(CC3)OC(C(N)=O)c3ccc(Cl)cc34)cc21` (stereo not drawn) [Compound 230] stands at most 0.05 µM; under `CN1C(=O)C2(CCN(Cc3cnn(CC(C)(C)O)c3)CC2)c2cc(Cl)ccc21` [Compound 52, 5-chloro-1′-[[1-(2-hydroxy-2-methyl-propyl)pyrazol-4-yl]methyl]-1-methyl-spiro[indoline-3,4′-piperidine]-2-one], at most 0.05 µM.
For `COCn1cc(CN2CC[C@]3(C[C@@H]2C)OCCc2ccc(Cl)cc23)nn1` [Compound 155], the IC50 is 0.05 to 0.5 µM.
Under `CN1C(=O)C2(CCN(Cc3cnn(CCS(C)(=O)=O)c3)CC2)c2cc(C(F)(F)F)ccc21` [Compound 83] stands at least 0.5 µM; under `Cc1cc(CN2CCC3(CC2)OC(C(N)=O)c2ccc(Cl)cc23)no1` (stereo not drawn) [Compound 265], at least 0.5 µM; under `Cc1cc(CN2CCC3(CC2)OC(C(N)=O)c2ccc(Cl)cc23)on1` (stereo not drawn) [Compound 258], at least 0.5 µM.
On to `Cc1ccc2c(c1)C1(CCN(Cc3cnn(C)c3)CC1)OC2` [Compound 286, 5-methyl-1′-[(1-methylpyrazol-4-yl)methyl]spiro[1H-isobenzofuran-3,4′-piperidine]], for which the IC50 is at least 0.5 µM.
On to `CS(=O)(=O)CCn1cc(CN2CCC3(CC2)OCCc2ccc(Cl)cc23)nn1` [Compound 129], for which the IC50 was at least 0.5 µM.
On to `Cc1ccc2c(c1)[C@]1(CCN(Cc3cnc(NC(C)(C)CO)nc3)[C@@H](C)C1)OCC2` [Compound 94], for which the IC50 was at most 0.05 µM.
The result for `C[C@H]1C[C@@]2(CCN1Cc1cnn(CC(=O)N(C)C)c1)C(=O)Nc1ccc(Cl)cc12` [Compound 76] reads at most 0.05 µM; that for `NC(=O)C1OC2(CCN(Cc3cnc[nH]3)CC2)c2cc(Cl)ccc21` (stereo not drawn) [Compound 234], at most 0.05 µM; that for `CC(CO)(CO)Cn1cc(CN2CCC3(CC2)C(=O)Nc2ccc(Cl)cc23)nn1` [Compound 41, 5-chloro-1′-[[1-[3-hydroxy-2-(hydroxymethyl)-2-methyl-propyl]triazol-4-yl]methyl]spiro[indoline-3,4′-piperidine]-2-one], 0.05 to 0.5 µM.
Under `NC(=O)C1OC2(CCN(Cc3cc(C4CC4)[nH]n3)CC2)c2cc(Cl)ccc21` (stereo not drawn) [Compound 242] stands 0.05 to 0.5 µM; under `NC(=O)C1OC2(CCN(Cc3cnn(-c4ccccc4)c3)CC2)c2cc(Cl)ccc21` (stereo not drawn) [Compound 191, 5-chloro-1′-[(1-phenylpyrazol-4-yl)methyl]spiro[1H-isobenzofuran-3,4′-piperidine]-1-carboxamide], at most 0.05 µM; under `C[C@H]1C[C@@]2(CCN1Cc1cnn(CCS(C)(=O)=O)c1)OC[C@H](O)c1ccc(Cl)cc12` [Compound 132], at most 0.05 µM.
The result for `NC(=O)C1OC2(CCN(Cc3cnn(-c4ccccc4)c3)CC2)c2cc(C(F)(F)F)ccc21` (stereo not drawn) [Compound 197] reads at most 0.05 µM.
In the case of `CC(O)Cn1cc(CN2CC[C@]3(C[C@@H]2C)OCCc2ccc(Cl)cc23)nn1` (stereo partly drawn) [Compound 144], the IC50 is at most 0.05 µM.
As for `Cc1ccc2c(c1)[C@@]1(CCN(Cc3cnc(NC(C)(C)CO)nc3)[C@@H](C)C1)OCC2` [Compound 95], the IC50 is at least 0.5 µM.
Under `COC(=O)c1ccc(CN2CCC3(CC2)OC(C(N)=O)c2ccc(Cl)cc23)cn1` (stereo not drawn) [Compound 246] stands at most 0.05 µM; under `CS(=O)(=O)CCn1cc(CN2CCC3(CC2)OCC(O)c2ccc(Cl)cc23)cn1` (stereo not drawn) [Compound 130], 0.05 to 0.5 µM.
On to `C[C@H]1C[C@@]2(CCN1Cc1cn(CC(=O)NCC3(C#N)CC3)nn1)OCCc1ccc(Cl)cc12` [Compound 171], for which the IC50 was at most 0.05 µM.
Under `Cc1cc(CN2CCC3(CC2)OC(C(N)=O)c2ccc(Cl)cc23)nn1C` (stereo not drawn) [Compound 247] stands at least 0.5 µM; under `Cc1nnc(O)c(Cn2cc(CN3CC[C@]4(C[C@@H]3C)OCCc3ccc(Cl)cc34)nn2)c1C` [Compound 178], 0.05 to 0.5 µM; under `CS(=O)(=O)CCn1cc(CN2CCC3(CC2)C(=O)Nc2ccc(Cl)cc23)cn1` [Compound 1, 5-chloro-1′-[[1-(2-methylsulfonylethyl)pyrazol-4-yl]methyl]spiro[indoline-3,4′-piperidine]-2-one], 0.05 to 0.5 µM.
Under `Cc1cc(Cn2cc(CN3CC[C@]4(C[C@@H]3C)OCCc3ccc(Cl)cc34)nn2)cc(=O)[nH]1` [Compound 180] stands 0.05 to 0.5 µM.
Under `CS(=O)(=O)CCn1cc(CN2CCC3(CC2)C(=O)N(CC(F)F)c2ccccc23)cn1` [Compound 73] stands at least 0.5 µM; under `C[C@H]1C[C@@]2(CCN1Cc1ccncc1)OCCc1ccc(Cl)cc12` [Compound 118], at most 0.05 µM.
`C[C@H]1CC2(CCN1Cc1cnn(-c3ccccc3)c1)OC(C(N)=O)c1ccc(Cl)cc12` (single isomer, unassigned) [Compound 293, (2′S)-5-chloro-2′-methyl-1′-[(1-phenylpyrazol-4-yl)methyl]spiro[1H-isobenzofuran-3,4′-piperidine]-1-carboxamide]: the IC50 was 0.05 to 0.5 µM.
As for `Cc1ncc(CN2CC[C@]3(C[C@@H]2C)OCCc2ccc(Cl)cc23)cn1` [Compound 112], the IC50 was at most 0.05 µM.
The result for `CNC(=O)c1ccc(CN2CCC3(CC2)OC(C(N)=O)c2ccc(Cl)cc23)cc1` (stereo not drawn) [Compound 233] reads at most 0.05 µM.
For `C[C@H]1C[C@@]2(CCN1Cc1cnn(CCS(C)(=O)=O)c1)C(=O)N(C)c1ccc(Cl)cc12` [Compound 80, (2′S,3R)-5-chloro-1,2′-dimethyl-1′-[[1-(2-methylsulfonylethyl)pyrazol-4-yl]methyl]spiro[indoline-3,4′-piperidine]-2-one trifluoracetic acid], the IC50 is at most 0.05 µM.
The result for `Cc1cc2ncc(CN3CCC4(CC3)OC(C(N)=O)c3ccc(Cl)cc34)cn2n1` (stereo not drawn) [Compound 231] reads 0.05 to 0.5 µM; that for `CC(CO)(CO)Cn1cc(CN2CCC3(CC2)OC(C(N)=O)c2ccc(Cl)cc23)cn1` (stereo not drawn) [Compound 279, 5-chloro-1′-[[1-[3-hydroxy-2-(hydroxymethyl)-2-methyl-propyl]pyrazol-4-yl]methyl]spiro[1H-isobenzofuran-3,4′-piperidine]-1-carboxamide], at most 0.05 µM; that for `CC(C)(CO)Nc1ncc(CN2CCC3(CC2)C(=O)Nc2ccc(Cl)cc23)cn1` [Compound 10], 0.05 to 0.5 µM.
For `C[C@H]1C[C@@]2(CCN1Cc1cnc(N)nc1)OCCc1ccc(Cl)cc12` [Compound 123], the IC50 is at most 0.05 µM.
